Patent US11058115B2, “Heterocycle derivatives as pesticides” (Bayer Aktiengesellschaft, priority 2017, dated 2021)

Experiments:
Type in all cases: in vivo
Tetranychus urticae = Tetranychus urticae spray test, OP-resistant; conditions: spray on bean leaf discs, all stages, after 6 days
Protocol: Tetranychus urticae—Spray Test, OP-Resistant
(§1) To produce a suitable active ingredient formulation, 1 part by weight of active ingredient is dissolved with the specified parts by weight of solvent and made up to the desired concentration with water containing an emulsifier concentration of 1000 ppm. To produce further test concentrations, the formulation is diluted with emulsifier-containing water.
Discs of bean leaves (Phaseolus vulgaris) infested with all stages of the greenhouse red spider mite (Tetranychus urticae) are sprayed with an active ingredient formulation of the desired concentration.
After 6 days, the efficacy in % is determined. 100% means that all the spider mites have been killed; 0% means that no spider mites have been killed.

Musca domestica = Musca domestica test; conditions: adult houseflies, after 2 days
Protocol: Musca domestica Test Solvent: dimethyl sulfoxide To produce a suitable active ingredient formulation, 10 mg of active ingredient are mixed with 0.5 ml of dimethyl sulfoxide, and the concentrate is diluted with water to the desired concentration. Vessels containing a sponge treated with sugar solution and the active ingredient formulation of the desired concentration are populated with 10 adult houseflies (Musca domestica). After 2 days, the kill in % is determined. 100% means that all of the flies have been killed; 0% means that none of the flies have been killed.

Ctenocephalides felis [1] = assay: Ctenocephalides felis in vitro contact test with adult cat fleas; conditions: application rate 5 μg/cm^2 (=500 g/ha), after 48 h
Protocol: Ctenocephalides felis—In Vitro Contact Tests with Adult Cat Fleas For the coating of the test tubes, 9 mg of active ingredient are first dissolved in 1 ml of acetone p.a. and then diluted to the desired concentration with acetone p.a. 250 μl of the solution are distributed homogeneously on the inner walls and the base of a 25 ml glass tube by turning and rocking on an orbital shaker (rocking rotation at 30 rpm for 2 h). With 900 ppm of active ingredient solution and internal surface area 44.7 cm^2, given homogeneous distribution, an area-based dose of 5 μg/cm^2 is achieved. After the solvent has evaporated off, the tubes are populated with 5-10 adult cat fleas (Ctenocephalides felis), sealed with a perforated plastic lid and incubated in a horizontal position at room temperature and ambient humidity. After 48 h, efficacy is determined. To this end, the tubes are stood upright and the fleas are knocked to the base of the tube. Fleas which remain motionless at the base or move in an uncoordinated manner are considered to be dead or moribund. […] 100% efficacy means that all the fleas were dead or moribund. 0% efficacy means that no fleas were harmed.

Ctenocephalides felis [2] = assay: Ctenocephalides felis oral test; conditions: application rate 100 ppm in citrated cattle blood, adult cat fleas, after 2 days
Protocol: Ctenocephalides felis—Oral Test Solvent: dimethyl sulfoxide To produce a suitable active ingredient formulation, 10 mg of active ingredient are mixed with 0.5 ml of dimethyl sulfoxide. Dilution with citrated cattle blood gives the desired concentration. About 20 unfed adult cat fleas (Ctenocephalides felis) are placed into a chamber which is closed at the top and bottom with gauze. A metal cylinder whose bottom end is closed with parafilm is placed onto the chamber. The cylinder contains the blood/active ingredient formulation, which can be imbibed by the fleas through the parafilm membrane. After 2 days, the kill in % is determined. 100% means that all of the fleas have been killed; 0% means that none of the fleas have been killed.

Myzus persicae [3] = assay: Myzus persicae oral test; conditions: 120 h, after 5 days, read-out: efficacy in %; for pest or weed control at 4 ppm: application rate 4 ppm; for pest or weed control at 20 ppm: application rate 20 ppm; for pest or weed control at 0.8 ppm: application rate 0.8 ppm
Protocol: Myzus persicae—Oral Test [table] To produce a suitable active ingredient formulation, 1 part by weight of active ingredient is dissolved with the stated parts by weight of solvent and made up to the desired concentration with water. 50 μl of the active ingredient formulationare transferred into microtitre plates and made up to a final volume of 200 μl with 150 μl of IPL41 insect medium (33% +15% sugar). Subsequently, the plates are sealed with parafilm, which a mixed population of green peach aphids (Myzus persicae) within a second microtitre plate is able to puncture and imbibe the solution. After 5 days, the efficacy in % is determined. 100% means that all the aphids have been killed; 0% means that no aphids have been killed.

Phaedon cochleariae = Phaedon cochleariae spray test; conditions: foliar, 168 h, application rate 100 g/ha, spray on Chinese cabbage leaf discs, larvae, after 7 days, read-out: efficacy in %
Protocol: Phaedon cochleariae—Spray Test
as §1
Discs of Chinese cabbage leaves (Brassica pekinensis) are sprayed with an active ingredient formulation of the desired concentration and, after drying, populated with larvae of the mustard beetle (Phaedon cochleariae).
After 7 days, the efficacy in % is determined. 100% means that all the beetle larvae have been killed; 0% means that no beetle larvae have been killed.

Lucilia cuprina = Lucilia cuprina test; conditions: application rate 100 ppm, L1 larvae, after 2 days
Protocol: Lucilia cuprina Test Solvent: dimethyl sulfoxide To produce a suitable active ingredient formulation, 10 mg of active ingredient are mixed with 0.5 ml of dimethyl sulfoxide, and the concentrate is diluted with water to the desired concentration. About 20 L1 larvae of the Australian sheep blowfly (Lucilia cuprina) are transferred into a test vessel containing minced horsemeat and the active ingredient formulation of the desired concentration. After 2 days, the kill in % is determined. 100% means that all the larvae have been killed; 0% means that no larvae have been killed.

Rhipicephalus sanguineus = Rhipicephalus sanguineus in vitro contact test with adult brown dog ticks; conditions: application rate 5 μg/cm^2 (=500 g/ha), after 48 h
Protocol: Rhipicephalus sanguineus—In Vitro Contact Test with Adult Brown Dog Ticks For the coating of the test tubes, 9 mg of active ingredient are first dissolved in 1 ml of acetone p.a. and then diluted to the desired concentration with acetone p.a. 250 µl of the solution are distributed homogeneously on the inner walls and the base of a 25 ml glass tube by turning and rocking on an orbital shaker (rocking rotation at 30 rpm for 2 h). With 900 ppm of active ingredient solution and internal surface area 44.7 cm^2, given homogeneous distribution, an area-based dose of 5 μg/cm^2 is achieved. After the solvent has evaporated off, the tubes are populated with 5-10 adult dog ticks (Rhipicephalus sanguineus), sealed with a perforated plastic lid and incubated in a horizontal position in darkness at room temperature and ambient humidity. After 48 h, efficacy is determined. To this end, the ticks are knocked to the base of the tube and incubated on a hotplate at 45-50° C. for a maximum 5 min. Ticks which remain motionless at the base or move in such an uncoordinated manner that they cannot attempt to escape from the heat by climbing upward are considered to be dead or moribund. […] 100% efficacy means that all the ticks were dead or moribund. 0% efficacy means that no ticks were harmed.

Spodoptera frugiperda = Spodoptera frugiperda spray test; conditions: application rate 100 g/ha, spray on maize leaf discs, caterpillars, after 7 days
Protocol: Spodoptera frugiperda—Spray Test [table] To produce a suitable active ingredient formulation, 1 part by weight of active ingredient is dissolved with the specified parts by weight of solvent and made up to the desired concentration with water containing an emulsifier concentration of 1000 ppm. To produce further test concentrations, the formulation is diluted with emulsifier-containing water. Leaf discs of maize (Zea mays) are sprayed with an active ingredient formulation of the desired concentration and, after drying, populated with caterpillars of the armyworm (Spodoptera frugiperda). After 7 days, the efficacy in % is determined. 100% means that all the caterpillars have been killed; 0% means that no caterpillar has been killed.

Myzus persicae [4] = assay: Myzus persicae spray test; conditions: foliar, 120 h, application rate 100 g/ha, spray on Chinese cabbage leaf discs, after 5 days, read-out: efficacy in %
Protocol: Myzus persicae—Spray Test [table] To produce a suitable active ingredient formulation, 1 part by weight of active ingredient is dissolved with the specified parts by weight of solvent and made up to the desired concentration with water containing an emulsifier concentration of 1000 ppm. To produce further test concentrations, the formulation is diluted with emulsifier-containing water. Discs of Chinese cabbage leaves (Brassica pekinensis) infested by all stages of the green peach aphid (Myzus persicae) are sprayed with an active ingredient formulation of the desired concentration. After 5 days, the efficacy in % is determined. 100% means that all the aphids have been killed; 0% means that no aphids have been killed.

Row | SMILES | efficacy in % (Tetranychus urticae; application rate 100 g/ha) [%] | efficacy (kill in %) (Musca domestica; application rate 20 ppm) [%] | efficacy (kill in %) (Musca domestica; application rate 100 ppm) [%] | efficacy (fleas dead or moribund) (Ctenocephalides felis [1]) [%] | efficacy (kill in %) (Ctenocephalides felis [2]) [%] | pest or weed control at 4 ppm (Myzus persicae [3]) [%] | pest or weed control at 20 ppm (Myzus persicae [3]) [%] | pest or weed control at 100 g/ha (Phaedon cochleariae) [%] | efficacy (kill in %) (Lucilia cuprina) [%] | efficacy in % (Tetranychus urticae; application rate 20 g/ha) [%] | efficacy (ticks dead or moribund) (Rhipicephalus sanguineus) [%] | pest or weed control at 0.8 ppm (Myzus persicae [3]) [%] | efficacy in % (Spodoptera frugiperda) [%] | pest or weed control at 100 g/ha (Myzus persicae [4]) [%]
1 | CCSc1c(-c2nc3cc(C(F)(F)F)cnc3n2C)nc(C2CC2)n1C [Example I-1, 2-[2-Cyclopropyl-5-(ethylsulfanyl)-1-methyl-1H-imidazol-4-yl]-3-methyl-6-(trifluoromethyl)-3H-imidazo[4,5-b]pyridine] | 100 | 100 | 100 | 100 | 90 | 100 | 100 | 100 | 100 |  |  |  |  | 
2 | CCS(=O)(=O)c1c(-c2nc3cc(C(F)(F)F)cnc3n2C)nc(C2CC2)n1C [Example I-2, 2-[2-Cyclopropyl-5-(ethylsulfonyl)-1-methyl-1H-imidazol-4-yl]-3-methyl-6-(trifluoromethyl)-3H-imidazo[4,5-b]pyridine] |  | 90 | 80 | 100 | 100 | 100 | 100 | 100 | 100 | 90 | 100 | 100 | 100 | 90
3 | CCS(=O)(=O)c1c(-c2nc3cc(OC(F)(F)F)cnc3n2C)nc(C2CC2)n1C [Example I-6] | 90 |  |  |  |  | 100 |  | 100 |  |  |  | 100 | 100 | 100
4 | CCS(=O)(=O)c1c(-c2nc3cc([S+]([O-])C(F)(F)F)cnc3n2C)nc(C2CC2)n1C (stereo not shown) [Example I-7] |  | 80 |  |  | 100 |  |  | 100 | 100 |  |  | 100 | 100 | 90
5 | CCS(=O)(=O)c1c(-c2nc3cc(S(=O)(=O)C(F)(F)F)cnc3n2C)nc(C2CC2)n1C [Example I-8] |  | 80 |  |  | 100 | 100 |  | 100 | 100 |  |  | 100 | 100 | 
6 | CCS(=O)(=O)c1c(-c2nc3cc(C(F)(F)F)ncc3n2C)nc(C2CC2)n1C [Example I-9] |  |  |  |  |  | 100 |  | 100 |  |  |  | 100 |  | 
7 | CCn1c(C2CC2)nc(-c2nc3cc(C(F)(F)F)ncc3n2C)c1S(=O)(=O)CC [Example I-10] |  |  |  |  |  | 100 |  | 100 |  |  |  | 100 | 83 | 
8 | CCS(=O)(=O)c1c(-c2nc3cc(C(F)(F)F)ncc3n2C)nc(C2CC2)n1C(C)C [Example I-11] |  |  |  |  | 90 | 100 |  | 100 | 100 |  |  | 100 |  | 90
9 | CCS(=O)(=O)c1c(-c2nc3cc(SC(F)(F)F)cnc3n2C)nc(C2CC2)n1C [Example I-12] |  |  |  |  |  | 100 |  | 100 |  |  |  | 100 | 83 | 100
10 | CCS(=O)(=O)c1c(-c2nc3cc(C(F)(F)F)ncc3n2C)nc(C2CCCCC2)n1C [Example I-13, 2-[2-Cyclohexyl-5-(ethylsulfonyl)-1-methyl-1H-imidazol-4-yl]-3-methyl-6-(trifluoromethyl)-3H-imidazo[4,5-c]pyridine] |  |  |  |  |  | 100 |  |  |  |  |  |  |  | 
11 | CCS(=O)(=O)c1c(-c2nc3cc(C(F)(F)F)ncc3n2C)nc([C@H]2CC[C@@H](C(F)(F)F)CC2)n1C [Example I-15] |  |  |  |  |  | 100 |  | 100 |  |  |  | 90 |  | 90
12 | CCS(=O)(=O)c1c(-c2nc3cc(C(F)(F)F)ncc3n2C)nc([C@H]2CC[C@@H](C)CC2)n1C [Example I-16] | 90 |  |  |  |  | 90 |  |  |  |  |  | 90 |  | 90
13 | CCS(=O)(=O)c1c(-c2nc3cc(C(F)(F)F)nnc3n2C)nc(C2CC2)n1C [Example I-17] |  |  |  |  |  | 100 |  | 100 |  |  |  | 100 |  | 90
